Results taken from ChEMBL document CHEMBL1201862, “PubChem BioAssay data set” (2004).
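Cultured in 96-well plates, cells were exposed to test compound for 48 hours across five concentrations. The concentration for 50% growth inhibition is given as GI50.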 Activity calls are given as the source filed them. No stated cut-off is given here; in the data, active = GI50 up to about 1.1 µM and inactive = higher. *1 amine or outer side, *2 acyl side, *3 side chain or, on linkers, in order; H or OH if unused. Where a SMILES comes first, the peptide text is derived from it. Bridges are numbered along the chain shown (N, C = ends). Roman numbers before positions name the chains, in order. [ ]: non-standard residue; d: D form. Actinocin(1to9) = Cc1c2oc3c(C)ccc(C(=O)[*:2])c3nc-2c(C(=O)[*:1])c(N)c1=O; NMeV = CN[CH](C(=O)O)C(C)C; Sar = CNCC(=O)O

What was measured:
Experiment in all cases: NCI tumour cell line growth inhibition, 48 h
[1] = tested on: HOP-92
[2] = tested on: UACC-257
[3] = tested on: A498
[4] = tested on: EKVX
[5] = tested on: NCI-H522
[6] = tested on: NCI-H23
[7] = tested on: NCI/ADR-RES
[8] = tested on: COLO 205
[9] = tested on: OVCAR-4
[10] = tested on: UO-31
[11] = tested on: K562
[12] = tested on: MCF7
[13] = tested on: Hs-578T
[14] = tested on: HCT-116
[15] = tested on: A549
[16] = tested on: LOX IMVI
[17] = tested on: SN12C
[18] = tested on: SW-620
[19] = tested on: MDA-MB-231
[20] = tested on: XF498

| SMILES | GI50 [1] | GI50 [2] | GI50 [3] | GI50 [4] | GI50 [5] | GI50 [6] | GI50 [7] | GI50 [8] | GI50 [9] | GI50 [10] | GI50 [11] | GI50 [12] | GI50 [13] | GI50 [14] | GI50 [15] | GI50 [16] | GI50 [17] | GI50 [18] | GI50 [19] | GI50 [20] |
| --- | --- | --- | --- | --- | --- | --- | --- | --- | --- | --- | --- | --- | --- | --- | --- | --- | --- | --- | --- | --- |
| O=C(O)c1cc2ccc3ccccc3c2oc1=O | > 100 µM (inactive) | > 100 µM (inactive) | 54.2 µM (inactive) | 31.3 µM (inactive) | > 100 µM (inactive) | > 100 µM (inactive) | > 100 µM (inactive) | > 100 µM (inactive) | > 100 µM (inactive) | > 100 µM (inactive) | > 100 µM (inactive) | > 100 µM (inactive) | > 100 µM (inactive) | > 100 µM (inactive) | > 100 µM (inactive) | > 100 µM (inactive) | > 100 µM (inactive) | > 100 µM (inactive) | > 100 µM (inactive) | – |
| COC1OC(CO)C(O)C(NC(=O)N(C)N=O)C1O (stereo not given) | > 100 µM (inactive) | – | > 100 µM (inactive) | > 100 µM (inactive) | > 100 µM (inactive) | > 100 µM (inactive) | – | > 100 µM (inactive) | > 100 µM (inactive) | > 100 µM (inactive) | > 100 µM (inactive) | – | – | > 100 µM (inactive) | > 100 µM (inactive) | – | > 100 µM (inactive) | > 100 µM (inactive) | – | > 100 µM (inactive) |
| COC(=O)c1c(O)ccc2c1c1c(n2C)C(=O)c2ccccc2C1=O | 2.28 µM (inactive) | > 100 µM (inactive) | > 100 µM (inactive) | 42 µM (inactive) | 18.4 µM (inactive) | 19.7 µM (inactive) | 43.7 µM (inactive) | 65.9 µM (inactive) | 13.6 µM (inactive) | 6.75 µM (inactive) | > 100 µM (inactive) | 9.18 µM (inactive) | 6.93 µM (inactive) | 12.2 µM (inactive) | 14.5 µM (inactive) | 16.7 µM (inactive) | 11.9 µM (inactive) | 59.4 µM (inactive) | 10 µM (inactive) | – |
| COc1ccc(C(=O)C(C(=O)C(=O)Nc2nc3ccc(OC)cc3s2)c2ccc(OC)cc2)cc1 (stereo not given) | > 100 µM (inactive) | 63.2 µM (inactive) | > 100 µM (inactive) | > 100 µM (inactive) | – | > 100 µM (inactive) | – | > 100 µM (inactive) | > 100 µM (inactive) | 89.5 µM (inactive) | > 100 µM (inactive) | – | – | – | > 100 µM (inactive) | > 100 µM (inactive) | > 100 µM (inactive) | > 100 µM (inactive) | – | > 100 µM (inactive) |
| CN(C(=O)C12C3C4C1C1C2C3C41C(=O)N(C)C(C)(C)C)C(C)(C)C (stereo not given) | > 50 µM (inactive) | – | > 50 µM (inactive) | > 50 µM (inactive) | > 50 µM (inactive) | – | – | > 50 µM (inactive) | – | > 50 µM (inactive) | > 50 µM (inactive) | – | – | > 50 µM (inactive) | > 50 µM (inactive) | – | > 50 µM (inactive) | > 50 µM (inactive) | – | > 50 µM (inactive) |
| CC1(C)CC(/C=C2/OC(=O)c3ccccc32)=C(C(N)=O)C(=O)O1 | – | > 100 µM (inactive) | – | > 100 µM (inactive) | > 100 µM (inactive) | > 100 µM (inactive) | – | 30.8 µM (inactive) | 72.1 µM (inactive) | 83.9 µM (inactive) | > 100 µM (inactive) | – | – | > 100 µM (inactive) | > 100 µM (inactive) | > 100 µM (inactive) | > 100 µM (inactive) | > 100 µM (inactive) | – | > 100 µM (inactive) |
| c1ccc2cc3[s+]snc3cc2c1 | – | > 100 µM (inactive) | > 100 µM (inactive) | > 100 µM (inactive) | > 100 µM (inactive) | > 100 µM (inactive) | – | > 100 µM (inactive) | > 100 µM (inactive) | > 100 µM (inactive) | > 100 µM (inactive) | – | – | > 100 µM (inactive) | > 100 µM (inactive) | > 100 µM (inactive) | > 100 µM (inactive) | > 100 µM (inactive) | – | > 100 µM (inactive) |
| N#CC(C(=O)CCCC(=O)Nc1ccc(Cl)cc1Cl)c1ccc(Cl)cc1 (stereo not given) | > 100 µM (inactive) | > 100 µM (inactive) | – | – | > 100 µM (inactive) | > 100 µM (inactive) | – | > 100 µM (inactive) | > 100 µM (inactive) | > 100 µM (inactive) | > 100 µM (inactive) | – | – | > 100 µM (inactive) | > 100 µM (inactive) | > 100 µM (inactive) | > 100 µM (inactive) | > 100 µM (inactive) | – | > 100 µM (inactive) |
| CC(N)Cc1ccc(C(=O)Cl)cc1 (stereo not given) | – | > 100 µM (inactive) | > 100 µM (inactive) | > 100 µM (inactive) | > 100 µM (inactive) | > 100 µM (inactive) | – | > 100 µM (inactive) | > 100 µM (inactive) | – | > 100 µM (inactive) | – | – | > 100 µM (inactive) | > 100 µM (inactive) | > 100 µM (inactive) | > 100 µM (inactive) | > 100 µM (inactive) | – | > 100 µM (inactive) |
| CN(C)C(=S)/N=c1\ss/c(=N\S(=O)(=O)c2ccccc2)n1C | > 100 µM (inactive) | > 100 µM (inactive) | > 100 µM (inactive) | > 100 µM (inactive) | > 100 µM (inactive) | > 100 µM (inactive) | – | – | > 100 µM (inactive) | > 100 µM (inactive) | > 100 µM (inactive) | – | – | > 100 µM (inactive) | > 100 µM (inactive) | > 100 µM (inactive) | > 100 µM (inactive) | > 100 µM (inactive) | – | > 100 µM (inactive) |
| Nc1ncnc2c1ncn2C1OC(CSCC(F)(F)F)C(O)C1O (stereo not given) | > 100 µM (inactive) | > 100 µM (inactive) | – | > 100 µM (inactive) | 45 µM (inactive) | > 100 µM (inactive) | – | > 100 µM (inactive) | > 100 µM (inactive) | > 100 µM (inactive) | > 100 µM (inactive) | – | – | > 100 µM (inactive) | > 100 µM (inactive) | > 100 µM (inactive) | > 100 µM (inactive) | > 100 µM (inactive) | – | > 100 µM (inactive) |
| CCCCOCc1cc(CN2CCN(C)CC2)c(O)c2ncccc12 | 55.1 µM (inactive) | 21.1 µM (inactive) | 24.8 µM (inactive) | 23.5 µM (inactive) | 26.4 µM (inactive) | 14.5 µM (inactive) | – | 29.6 µM (inactive) | 21.5 µM (inactive) | 9.66 µM (inactive) | 3.26 µM (inactive) | – | – | 14.7 µM (inactive) | 23.6 µM (inactive) | 22.1 µM (inactive) | 21.9 µM (inactive) | 9.89 µM (inactive) | – | 30.8 µM (inactive) |
| CCOC(=O)N1C(c2ccccc2)C=CC(c2ccccc2)N1C(=O)OCC (stereo not given) | > 100 µM (inactive) | > 100 µM (inactive) | > 100 µM (inactive) | > 100 µM (inactive) | – | > 100 µM (inactive) | – | > 100 µM (inactive) | > 100 µM (inactive) | – | > 100 µM (inactive) | – | – | > 100 µM (inactive) | > 100 µM (inactive) | > 100 µM (inactive) | > 100 µM (inactive) | > 100 µM (inactive) | – | > 100 µM (inactive) |
| CC(C)(C)c1ccnc(/N=C2\N/C(=N\c3cc(C(C)(C)C)ccn3)c3ccccc32)c1 | 22.6 µM (inactive) | 23 µM (inactive) | 19.9 µM (inactive) | 57.9 µM (inactive) | 21.6 µM (inactive) | 30.7 µM (inactive) | – | > 100 µM (inactive) | > 100 µM (inactive) | 32 µM (inactive) | 41.3 µM (inactive) | – | – | 14.6 µM (inactive) | 26.1 µM (inactive) | 35.9 µM (inactive) | > 100 µM (inactive) | 42.7 µM (inactive) | – | 15.5 µM (inactive) |
| CN1C(=O)C2C3C=C4c5ccccc5N(c5ccccc5)C4(C2C1=O)[C@H]1C(=O)N(C)C(=O)[C@@H]31 (stereo not given in full) | > 100 µM (inactive) | > 100 µM (inactive) | > 100 µM (inactive) | > 100 µM (inactive) | > 100 µM (inactive) | > 100 µM (inactive) | – | > 100 µM (inactive) | > 100 µM (inactive) | > 100 µM (inactive) | > 100 µM (inactive) | – | – | > 100 µM (inactive) | > 100 µM (inactive) | > 100 µM (inactive) | > 100 µM (inactive) | > 100 µM (inactive) | – | > 100 µM (inactive) |
| CCC(C)C1NC(=O)C(NC(=O)c2c3nc4c(C(=O)NC5C(=O)NC(C(C)C)C(=O)N6CCCC6C(=O)N(C)CC(=O)N(C)C(C(C)C)C(=O)OC5C)ccc(C)c4oc-3c(C)c(=O)c2N)C(C)OC(=O)C(C(C)C)N(C)C(=O)CN(C)C(=O)C2CCCN2C1=O (stereo not given) (I: TIP[Sar][NMeV] / II: TVP[Sar][NMeV]; ester I:1-I:C, II:1-II:C; linker I:N-II:N via Actinocin(1to9); configuration not given here) | 0.00161 µM (active) | 0.00119 µM (active) | 0.000197 µM (active) | 0.00377 µM (active) | < 0.0001 µM (active) | 0.000697 µM (active) | 0.156 µM (active) | < 0.0001 µM (active) | 0.0102 µM (active) | 0.0787 µM (active) | < 0.0001 µM (active) | < 0.0001 µM (active) | 0.00546 µM (active) | < 0.0001 µM (active) | 0.000431 µM (active) | < 0.0001 µM (active) | 0.000388 µM (active) | < 0.0001 µM (active) | 0.000173 µM (active) | – |
| O=C(O)[C@@H]1CCCN1 [PROLINE] | > 100 µM (inactive) | > 100 µM (inactive) | > 100 µM (inactive) | > 100 µM (inactive) | > 100 µM (inactive) | > 100 µM (inactive) | > 100 µM (inactive) | > 100 µM (inactive) | > 100 µM (inactive) | > 100 µM (inactive) | > 100 µM (inactive) | > 100 µM (inactive) | > 100 µM (inactive) | > 100 µM (inactive) | > 100 µM (inactive) | > 100 µM (inactive) | > 100 µM (inactive) | > 100 µM (inactive) | > 100 µM (inactive) | – |
